Test results from patent publication US20240199616A1, “BICYCLIC COMPOUNDS AS ALLOSTERIC SHP2 INHIBITORS” (Revolution Medicines, Inc., priority 2017, published 2024).

Molecular target: SHP2 (Homo sapiens (Human), UniProt Q06124)
Test: SHP2 allosteric inhibition assay (DiFMUP prompt fluorescence)
Type: biochemical
Details: 0.2 nM SHP2 incubated with 0.5 μM Activating Peptide 1 or 2, 30-60 min at 25° C., surrogate substrate DiFMUP, kinetic read
Description: Without wishing to be bound by theory, SHP is allosterically activated through binding of bis-tyrosyl-phosphorylated peptides to its Src Homology 2 (SH2) domains. The latter activation step leads to the release of the auto-inhibitory interface of SHP2, which in turn renders the SHP2 protein tyrosine phosphatase (PTP) active and available for substrate recognition and reaction catalysis. The catalytic activity of SHP2 was monitored using the surrogate substrate DiFMUP in a prompt fluorescence assay format.
The phosphatase reactions were performed at room temperature in 96-well black polystyrene plate, flat bottom, non-binding surface (Corning, Cat #3650) using a final reaction volume of 100 μL and the following assay buffer conditions: 50 mM HEPES, pH 7.2, 100 mM NaCl, 0.5 mM EDTA, 0.05% P-20, 1 mM DTT.
The inhibition of SHP2 by compounds of the disclosure (concentrations varying from 0.00005-10 μM) was monitored using an assay in which 0.2 nM of SHP2 was incubated with 0.5 μM of Activating Peptide 1 (sequence: H2N-LN(pY)IDLDLV(dPEG8)LST(pY)ASINFQK-amide) or Activating Peptide 2 (sequence: H2N-LN(pY)AQLWHA(dPEG8)LTI(pY)ATIRRF-amide). […]

IC50: 0.034 µM
Structure (SMILES): Cc1nc(N2CCC3(CCC[C@H]3N)CC2)c2cncn2c1-c1cccc(Cl)c1Cl [Compound 3, (1R)-8-[5-(2,3-dichlorophenyl)-6-methylimidazo[1,5-a]pyrazin-8-yl]-8-azaspiro[4.5]decan-1-amine]
